Experimental findings from US11884647B2, “Compounds and methods for targeting pathogenic blood vessels” (THE REGENTS OF THE UNIVERSITY OF CALIFORNIA, priority 2019, dated 2024) are described below.

For assay [1], the system named is tumor endothelial cells (CT26.CL25 colon cancer tumor). The assay is described as follows: Colon CT26 ex vivo model of tumor angiogenesis. The class given is cell-based. The settings on record: Mus musculus, CT26, 48 h, read-out: Cell death. The procedure, abridged: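 Explant pieces of CT26 tumor (about 0.075 mm^3) were embedded in Matrigel and grown in endothelial growth medium at 37 °C for about 7 days until endothelial outgrowth appeared, then treated. Cell death was read about 48 h after drug addition by fluorescein diacetate (live) and propidium iodide (dead) staining with red/green imaging.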

In assay [2] the test system is tumor endothelial cells (LL/2 lung cancer tumor). The assay is described as follows: Lung LL2 ex vivo model of tumor angiogenesis. The class given is cell-based, mouse. The settings on record: for cytotoxicity at 20 µM / cytotoxicity at 40 µM: Mus musculus, Endothelial cell, 48 h, read-out: Cell death; for Cell death: Lung LL2 ex vivo, Conc. 20 μm, drug treatment two days. In a few lines:
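Read-out is live/dead fluorescence imaging (fluorescein diacetate green, propidium iodide red, 10 min at 37° C) at 2×, taken e.g. 48 h after drug addition. Fragments of mouse LL2 tumor are cultured in Matrigel with endothelial growth medium, usually 4 days, until new endothelial cells grow out, then treated.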

Regarding `COc1ccc(S(=O)(=O)c2cnc3cc(OC)c(OC)cc3c2-n2cncn2)cc1OC` [compound 96, 3-((3,4-dimethoxyphenyl)sulfonyl)-6,7-dimethoxy-4-(1H-1,2,4-triazol-1-yl)quinoline], the cytotoxicity at 10 µM in assay [1] was determined as 0%. Further, the cytotoxicity at 20 µM in assay [2] came to 0%.

For `COc1ccc(S(=O)(=O)c2cnc3ccc([N+](=O)[O-])cc3c2-n2cncn2)cc1` [compound 97, 3-((4-methoxyphenyl)sulfonyl)-6-nitro-4-(1H-1,2,4-triazol-1-yl)quinoline], the cytotoxicity at 10 µM in assay [1] was found to be 100%. Further, in assay [2], the cytotoxicity at 20 µM amounted to 50%.

As to `COc1ccc(S(=O)(=O)c2cnc3ccc(CC#N)cc3c2-n2cncn2)cc1` [compound 98, 2-(3-((4-methoxyphenyl)sulfonyl)-4-(1H-1,2,4-triazol-1-yl)quinolin-6-yl)acetonitrile], the cytotoxicity at 10 µM in assay [1] was 50%. For the same compound, in assay [2], the cytotoxicity at 20 µM came to 10%.

In the case of `COc1ccc(S(=O)(=O)c2cnc3ccc(CC#N)cc3c2NN2CCN(C)CC2)cc1` [compound 99, 2-(3-((4-methoxyphenyl)sulfonyl)-4-((4-methylpiperazin-1-yl)amino)quinolin-6-yl)acetonitrile], the values for the cytotoxicity at 40 µM in assay [1] and in assay [2] were 0% and 10%, respectively.

Consider `CCc1ccc(S(=O)(=O)c2cnc3ccc(OC(F)(F)F)cc3c2N2CCCN(CCN(CC)CC)CC2)cc1` [compound 100, N,N-diethyl-2-(4-(3-((4-ethylphenyl)sulfonyl)-6-(trifluoromethoxy)quinolin-4-yl)-1,4-diazepan-1-yl)ethan-1-amine], for which the cytotoxicity at 40 µM in assay [1] and in assay [2] was 100% in each case.

On to `CCc1ccc(S(=O)(=O)c2cnc3ccc(OC(F)(F)F)cc3c2N2CCC(OCCN(CC)CC)CC2)cc1` [compound 101, N,N-diethyl-2-((1-(3-((4-ethylphenyl)sulfonyl)-6-(trifluoromethoxy)quinolin-4-yl)piperidin-4-yl)oxy)ethan-1-amine], for which the cytotoxicity at 20 µM in assay [1] is 50%. The Cell death in assay [2] turned out to be 100%.

For `CCc1ccc(S(=O)(=O)c2cnc3ccc(OC(F)(F)F)cc3c2N2CCC(N3CCC(O)CC3)CC2)cc1` [compound 102, 1′-(3-((4-ethylphenyl)sulfonyl)-6-(trifluoromethoxy)quinolin-4-yl)-[1,4′-bipiperidin]-4-ol], the cytotoxicity at 40 µM in assay [1] was determined as 5%. The same compound yielded a Cell death in assay [2] of 20%.

As to `CCc1ccc(S(=O)(=O)c2cnc3ccc(OC(F)(F)F)cc3c2-n2ccnn2)cc1` [compound 110, 3-((4-ethylphenyl)sulfonyl)-4-(1H-1,2,3-triazol-1-yl)-6-(trifluoromethoxy)quinoline], the cytotoxicity at 40 µM in assay [1] turned out to be 10%. The cytotoxicity at 20 µM in assay [2] was 95%.

For `CCc1ccc(S(=O)(=O)c2cnc3ccc(OC(F)(F)F)cc3c2-n2nnc3ccccc32)cc1` [compound 112, 4-(1H-benzo[d][1,2,3]triazol-1-yl)-3-((4-ethylphenyl)sulfonyl)-6-(trifluoromethoxy)quinoline], the cytotoxicity at 40 µM in assay [1] turned out to be 10%. In addition, in assay [2], the cytotoxicity at 20 µM was determined as 70%.

Consider `CCCCOc1ccc2ncc(S(=O)(=O)c3ccc(OC)c(OC)c3)c(N3CCC(N4CCCCC4)CC3)c2c1` [compound 116, 4-([1,4′-bipiperidin]-1′-yl)-6-butoxy-3-((3,4-dimethoxyphenyl)sulfonyl)quinoline], for which the cytotoxicity at 20 µM in assay [1] stood at 50%; in assay [2], 100%.

As for `CCc1ccc(S(=O)(=O)c2cnc3ccc(OC(F)(F)F)cc3c2-n2cnc(C)c2)cc1` [compound 117, 3-((4-ethylphenyl)sulfonyl)-4-(4-methyl-1H-imidazol-1-yl)-6-(trifluoromethoxy)quinoline], the cytotoxicity at 20 µM in assay [1] and in assay [2] was 100% each time.

Consider `CCc1ccc(S(=O)(=O)c2cnc3ccc(OC(F)(F)F)cc3c2-n2ccnc2)cc1` [compound 118, 3-((4-ethylphenyl)sulfonyl)-4-(1H-imidazol-1-yl)-6-(trifluoromethoxy)quinoline], for which the cytotoxicity at 20 µM in assay [1] and in assay [2] was 100% each time.
